# Biological target: T1, ATP phosphoribosyltransferase (Mycobacterium tuberculosis (strain ATCC 25618 / H37Rv), UniProt P9WMN1)
# T1 sequence (P9WMN1 whole entry): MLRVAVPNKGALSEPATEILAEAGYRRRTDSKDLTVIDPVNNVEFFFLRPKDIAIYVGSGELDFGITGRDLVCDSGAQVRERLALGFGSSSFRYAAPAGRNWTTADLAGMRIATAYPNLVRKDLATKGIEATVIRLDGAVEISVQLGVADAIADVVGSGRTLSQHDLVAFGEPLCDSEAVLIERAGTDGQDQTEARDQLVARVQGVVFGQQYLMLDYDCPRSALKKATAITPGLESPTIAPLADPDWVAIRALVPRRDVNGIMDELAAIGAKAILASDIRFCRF
# Experiment: Enzyme Inhibition Assay
# Details: pH 8.5; 22 °C
# Experimental: Inhibition activity was determined using an assay that followed the production of PR-ATP spectrophotometrically. Enzymatic reaction was initiated by adding the substrate PRPP to reaction mixtures containing HisG enzyme and test compounds, and absorbance of product was monitored at 290 nm for 5 min until it formed a plateau.
row,SMILES,IC50
1,"O=C(CSc1nnc(-c2ccccc2)c(-c2ccccc2)n1)Nc1nccs1 [2-[(5,6-diphenyl-1,2,4-triazin-3-yl)sulfanyl]-N-(1,3-thiazol-2-yl)acetamide]",4 µM
2,"COc1ccc(COC(=O)C2=C(C)N=C3CC(c4cccs4)CC(=O)C3C2c2cccs2)cc1 (configuration not stated) [(4-methoxyphenyl)methyl 2-methyl-5-oxo-4,7-bis(thiophen-2-yl)-1,4,5,6,7,8-hexahydroquinoline-3-carboxylate]",10 µM

# — BindingDB's records for doi:10.1021/jm800328v (Yale University, 2008)
